Patent US10383880B2 (Reset Therapeutics, Inc., priority 2012, dated 2019)

What follows are compounds tested on Per2-dLuc U2OS reporter cells (assay: Per2 assay for evaluating the potency of test compounds (high-throughput circadian assay)). Conditions: Homo sapiens, U2OS, stable U2OS reporter cells harboring Per2-dLuc; luminescence monitored over 4-5 days at 35° C.
Assay type: cell-based
Description: Compounds were screened by using a high-throughput circadian assay system as previously described in Zhang, E. E. et al. Cell, 2009, 139, 199-210. In brief, stable U2OS reporter cells harboring Per2-dLuc were plated at a density of 8,000 cells/well in Corning 96-well, solid white, flat bottom, TC-treated microplates (Corning®), and incubated for 24 hours at 37° C. in the presence of 5% CO2. The cells were then synchronized by serum shock by media exchange to a minimal explant media (10 mM HEPES (pH 7.0), 2% B27, 1×PSG (Invitrogen®), and 1.0 mM beetle luciferin (Promega®)) followed by the addition of the compounds of formula I dissolved in dimethylsulfoxide (0.5% final dimethylsulfoxide concentration). Gene expression was monitored by measuring luminescence (TecanR M200) over 4-5 days at 35° C. The period, amplitude, and phase of the associated circadian rhythms were determined using Multicycle™ software (Actimetrics, Inc). EC50 values of the compounds of formula I were calculated using Graphpad™ (Prism®).

Row | Compound | EC50
1 | CS(=O)(=O)N(CC(O)Cn1c2ccccc2c2ccccc21)C1(C#N)CC1 (stereo not drawn) [Compound 125, N-(3-(9H-Carbazol-9-yl)-2-hydroxypropyl)-N-(1-cyanocyclopropyl)methanesulfonamide] | 2610 nM
2 | CS(=O)(=O)N(CC(O)Cn1c2ccccc2c2ccccc21)C1CCc2ccccc21 (single isomer, unassigned) [Compound 61, N-(3-(9H-Carbazol-9-yl)-2-hydroxypropyl)-N-(2,3-dihydro-1H-inden-1-yl)methanesulfonamide] | 4470 nM
3 | COCCCS(=O)(=O)N(Cc1ccco1)CC(O)Cn1c2ccccc2c2ccccc21 (stereo not drawn) [Compound 9, N-(3-(9H-Carbazol-9-yl)-2-hydroxypropyl)-N-(furan-2-ylmethyl)-3-methoxypropane-1-sulfonamide] | 2860 nM
4 | O=S1(=O)NCCCN1CC(O)Cn1c2ccc(F)cc2c2cc(F)ccc21 (stereo not drawn) [Compound 171, 2-(3-(3,6-Difluoro-9H-carbazol-9-yl)-2-hydroxypropyl)-1,2,6-thiadiazinane-1,1-dioxide] | 25 nM
5 | CS(=O)(=O)N1CCCCC1C(O)Cn1c2ccccc2c2ccccc21 (stereo not drawn) [Compound 242, 2-(9H-Carbazol-9-yl)-1-(1-(methylsulfonyl)-piperidin-2-yl)ethanol] | 494 nM
6 | O=S1(=O)CCCCN1CC(O)Cn1c2ccc(F)cc2c2ccc(F)cc21 (stereo not drawn) [Compound 100, N-(3-(2,6-Diflouoro-9H-carbazol-9-yl)-2-hydroxypropyl)-1,2-thiazinane 1,1-dioxide] | 32 nM
7 | COC1CCCC(N(CC(O)Cn2c3ccc(F)cc3c3cc(F)ccc32)S(C)(=O)=O)C1 (stereo not drawn) [Compound 198, N-(3-(3,6-Difluoro-9H-carbazol-9-yl)-2-hydroxypropyl)-N-(3-methoxycyclohexyl)methanesulfonamide] | 1230 nM
8 | CC1CCCN(CC(O)Cn2c3ccccc3c3ccccc32)S1(=O)=O (stereo not drawn) [Compound 111, N-(3-(9H-Carbazol-9-yl)-2-hydroxypropyl)-6-methyl-1,2-thiazinane-1,1-dioxide] | 84 nM
9 | CS(=O)(=O)N(CC(O)Cn1c2ccccc2c2ccccc21)CC1CCCCC1 (stereo not drawn) [Compound 52, N-(3-(9H-Carbazol-9-yl)-2-hydroxypropyl)-N-(cyclohexylmethyl)methanesulfonamide] | 306 nM
10 | O=S1(=O)CCCCN1CC(O)Cn1c2cc(F)ccc2c2c(F)cccc21 (stereo not drawn) [Compound 96, N-(3-(2,5-Difluoro-9H-carbazol-9-yl)-2-hydroxypropyl)-1,2-thiazinane 1,1-dioxide] | 456 nM
11 | CS(=O)(=O)N(Cc1ccco1)CC(O)Cn1c2ccccc2c2cccc(F)c21 (stereo not drawn) [Compound 236, N-(3-(1-Fluoro-9H-carbazol-9-yl)-2-hydroxypropyl)-N-(furan-2-ylmethyl)methanesulfonamide] | 620 nM
12 | Cc1ccc(N(CC(O)Cn2c3ccccc3c3ccccc32)S(C)(=O)=O)cc1 (stereo not drawn) [Compound 25, N-(3-(9H-Carbazol-9-yl)-2-hydroxypropyl)-N-p-tolylmethanesulfonamide] | 170 nM
13 | O=S1(=O)c2ccccc2CN1CC(O)Cn1c2ccccc2c2ccccc21 (stereo not drawn) [Compound 34, N-(3-(9H-Carbazol-9-yl)-2-hydroxypropyl)-2,3-dihydrobenzo[d]isothiazole 1,1-dioxide] | 31 nM
14 | O=S1(=O)CCCCN1CC(O)Cn1c2ccc(F)cc2c2cc(F)ccc21 (stereo not drawn) [Compound 86, N-(3-(3,6-Difluoro-9H-carbazol-9-yl)-2-hydroxypropyl)-1,2-thiazinane 1,1-dioxide] | 46 nM
15 | CS(=O)(=O)N(CC(O)Cn1c2cc(F)ccc2c2ccc(F)cc21)C1CC1 (stereo not drawn) [Compound 161, N-Cyclopropyl-N-(3-(2,7-difluoro-9H-carbazol-9-yl)-2-hydroxypropyl)methanesulfonamide] | 1140 nM
16 | O=S(=O)(CC1CC1)N(Cc1ccco1)CC(O)Cn1c2ccccc2c2ccccc21 (stereo not drawn) [Compound 15, N-(3-(9H-Carbazol-9-yl)-2-hydroxypropyl)-1-cyclopropyl-N-(furan-2-ylmethyl)methanesulfonamide] | 592 nM
17 | CS(=O)(=O)N(CC(O)Cn1c2ccccc2c2ccccc21)c1ccc2ccccc2c1 (stereo not drawn) [Compound 48, N-(3-(9H-Carbazol-9-yl)-2-hydroxypropyl)-N-(naphthalen-2-yl)methanesulfonamide] | 1500 nM
18 | CCCOc1ccc(N(CC(O)Cn2c3ccc(F)cc3c3cc(F)ccc32)S(C)(=O)=O)cc1 (stereo not drawn) [Compound 203, N-(3-(3,6-Difluoro-9H-carbazol-9-yl)-2-hydroxypropyl)-N-(4-propoxyphenyl)methanesulfonamide] | 1770 nM
19 | O=S1(=O)CCCCN1C[C@H](O)Cn1c2ccccc2c2ccccc21 [Compound 41, (R)-N-(3-(9H-Carbazol-9-yl)-2-hydroxypropyl)-1,2-thiazinane 1,1-dioxide] | 343 nM
20 | CC(O)(CN1CCCN(C2CCCCC2)S1(=O)=O)Cn1c2ccc(F)cc2c2cc(F)ccc21 (stereo not drawn) [Compound 223, 2-(3-(3,6-Difluoro-9H-carbazol-9-yl)-2-hydroxy-2-methylpropyl)-6-cyclohexyl-1,2,6-thiadiazinane-1,1-dioxide] | 6790 nM

Row | Compound | EC50
21 | CN1CCN(CC(C)(O)Cn2c3ccc(F)cc3c3cc(F)ccc32)S1(=O)=O (stereo not drawn) [Compound 174] | 80 nM
22 | COCCS(=O)(=O)N(Cc1ccco1)CC(O)Cn1c2ccccc2c2ccccc21 (stereo not drawn) [Compound 11, N-(3-(9H-Carbazol-9-yl)-2-hydroxypropyl)-N-(furan-2-ylmethyl)-2-methoxyethanesulfonamide] | 1790 nM
23 | COCCN(CC(O)Cn1c2ccc(F)cc2c2ccc(F)cc21)S(C)(=O)=O (stereo not drawn) [Compound 104, N-(3-(2,6-Difluoro-9H-carbazol-9-yl)-2-hydroxypropyl)-N-(2-methoxyethyl)methanesulfonamide] | 3500 nM
24 | CS(=O)(=O)N(Cc1ccco1)CC(O)Cn1c2ccc(F)cc2c2c(F)cccc21 (stereo not drawn) [Compound 109, N-(3-(3,5-Difluoro-9H-carbazol-9-yl)-2-hydroxypropyl)-N-(furan-2-ylmethyl)methanesulfonamide] | 7420 nM
25 | CS(=O)(=O)N1CCCC1C(O)Cn1c2ccccc2c2ccccc21 (stereo not drawn) [Compound 241, 2-(9H-Carbazol-9-yl)-1-(1-(methyl-sulfonyl)-pyrrolidin-2-yl)ethanol] | 488 nM
26 | O=S1(=O)NCCCN1CC(O)Cn1c2ccccc2c2ccccc21 (stereo not drawn) [Compound 123, 2-(3-(9H-Carbazol-9-yl)-2-hydroxypropyl)-1,2,6-thiadiazinane-1,1-dioxide] | 33 nM
27 | CC(O)(CN(C1(C)CCCC1)S(C)(=O)=O)Cn1c2ccc(F)cc2c2cc(F)ccc21 (stereo not drawn) [Compound 197, N-(3-(3,6-Difluoro-9H-carbazol-9-yl)-2-hydroxy-2-methylpropyl)-N-(1-methylcyclopentyl)methanesulfonamide] | 873 nM
28 | CN(CC(O)Cn1c2ccc(F)cc2c2c(F)cccc21)S(C)(=O)=O (stereo not drawn) [Compound 110, N-(3-(3,5-Difluoro-9H-carbazol-9-yl)-2-hydroxypropyl)-N-methylmethanesulfonamide] | 3630 nM
29 | CC1CCN(CC(C)(O)Cn2c3ccc(F)cc3c3cc(F)ccc32)S1(=O)=O (stereo not drawn) [Compound 179, 2-(3-(3,6-Difluoro-9H-carbazol-9-yl)-2-hydroxy-2-methylpropyl)-5-methylisothiazolidine-1,1-dioxide] | 1200 nM
30 | CC(O)(CN1CCCN(C2CCCC2)S1(=O)=O)Cn1c2ccc(F)cc2c2cc(F)ccc21 (stereo not drawn) [Compound 221, 2-(3-(3,6-Difluoro-9H-carbazol-9-yl)-2-hydroxy-2-methylpropyl)-6-cyclopentyl-1,2,6-thiadiazinane-1,1-dioxide] | 5520 nM
31 | CS(=O)(=O)N(CC(O)Cn1c2ccc(F)cc2c2cc(F)ccc21)c1ccc(OC(F)F)cc1 (stereo not drawn) [Compound 206, N-(3-(3,6-Difluoro-9H-carbazol-9-yl)-2-hydroxypropyl)-N-(4-(difluoromethoxy)phenyl)methanesulfonamide] | 2850 nM
32 | CC(C)CN(CC(O)Cn1c2ccccc2c2ccccc21)S(C)(=O)=O (stereo not drawn) [Compound 49, N-(3-(9H-Carbazol-9-yl)-2-hydroxypropyl)-N-isobutylmethanesulfonamide] | 100 nM
33 | O=S1(=O)N(CC(O)Cn2c3ccc(F)cc3c3cc(F)ccc32)CCN1C1CCCC1 (stereo not drawn) [Compound 231] | 1500 nM
34 | CCOc1ccc(N(CC(O)Cn2c3ccc(F)cc3c3cc(F)ccc32)S(C)(=O)=O)cc1 (stereo not drawn) [Compound 202, N-(3-(3,6-Difluoro-9H-carbazol-9-yl)-2-hydroxypropyl)-N-(4-ethoxyphenyl)methanesulfonamide] | 2100 nM
35 | O=S1(=O)N(CC(O)Cn2c3ccc(F)cc3c3cc(F)ccc32)CCN1C1CCCCC1 (stereo not drawn) [Compound 233] | 418 nM
36 | CS(=O)(=O)NCC(O)Cn1c2ccccc2c2ccccc21 (stereo not drawn) [Compound 113, N-(3-(9H-Carbazol-9-yl)-2-hydroxypropyl)methanesulfonamide] | 123 nM
37 | CC(O)(CN1CCCN(C2CCC2)S1(=O)=O)Cn1c2ccc(F)cc2c2cc(F)ccc21 (stereo not drawn) [Compound 229, 2-(3-(3,6-Difluoro-9H-carbazol-9-yl)-2-hydroxy-2-methylpropyl)-6-cyclobutyl-1,2,6-thiadiazinane-1,1-dioxide] | 4980 nM
38 | CS(=O)(=O)N(CC(O)Cn1c2ccccc2c2ccccc21)c1ccc2cn[nH]c2c1 (stereo not drawn) [Compound 78, N-(3-(9H-Carbazol-9-yl)-2-hydroxypropyl)-N-(1H-indazol-6-yl)methanesulfonamide] | 6350 nM
39 | CC(O)(CN1CCCNS1(=O)=O)Cn1c2ccc(F)cc2c2cc(F)ccc21 (stereo not drawn) [Compound 172, 2-(3-(3,6-Difluoro-9H-carbazol-9-yl)-2-hydroxy-2-methylpropyl)-1,2,6-thiadiazinane-1,1-dioxide] | 375 nM
